Measurements taken from the NIST ThermoML archive (doi:10.1021/je900969u).

How the values were obtained:
[1] = xn = mol fraction of the nth substance listed; conditions: 101 kPa, Liquid
[2] = 101 kPa, Liquid

CN1CCNCC1 [N-methylpiperazine] + CC1CCCCC1
[1]
Conditions	mass density, 298.15 K [kg/m3]	mass density, 303.15 K [kg/m3]	mass density, 313.15 K [kg/m3]	viscosity, 298.15 K [mPa·s]	viscosity, 303.15 K [mPa·s]	viscosity, 313.15 K [mPa·s]
x1 = 0.0988	775.01	770.65	761.89	0.716	0.676	0.582
x1 = 0.1972	785.84	781.44	772.64	0.751	0.698	0.604
x1 = 0.297	797.52	793.12	784.26	0.801	0.73	0.634
x1 = 0.3964	811.57	805.63	796.74	0.867	0.776	0.674
x1 = 0.4953	822.93	818.51	809.59	0.945	0.84	0.725
x1 = 0.5948	836.59	832.17	823.26	1.057	0.918	0.791
x1 = 0.6952	850.68	846.26	837.34	1.19	1.022	0.868
x1 = 0.7969	865.9	861.49	852.58	1.362	1.164	0.97
x1 = 0.8977	881.36	876.96	868.08	1.585	1.326	1.087
x1 = 1	899.28	894.9	886.07	1.856	1.544	1.25

CN1CCNCC1 [N-methylpiperazine] + CCCCCCC
[1]
Conditions	mass density, 298.15 K [kg/m3]	mass density, 303.15 K [kg/m3]	mass density, 313.15 K [kg/m3]	viscosity, 298.15 K [mPa·s]	viscosity, 303.15 K [mPa·s]	viscosity, 313.15 K [mPa·s]
x1 = 0.1006	695.86	691.57	682.9	0.429	0.395	0.36
x1 = 0.2012	713.24	708.91	700.2	0.466	0.438	0.389
x1 = 0.3006	731.62	727.27	718.49	0.511	0.481	0.424
x1 = 0.4014	751.5	747.13	738.3	0.571	0.533	0.467
x1 = 0.5007	772.43	768.04	759.18	0.648	0.599	0.527
x1 = 0.5996	794.38	789.99	781.1	0.756	0.699	0.603
x1 = 0.7	818.02	813.61	804.71	0.905	0.815	0.691
x1 = 0.7979	842.73	838.32	829.43	1.094	0.995	0.826
x1 = 0.9036	871.01	866.62	857.75	1.474	1.234	1.024
x1 = 1	899.28	894.9	886.07	1.856	1.544	1.25

CC1CCCCC1 [methylcyclohexane] + CN1CCNCC1
[1], x2 = 0
Conditions	mass density [kg/m3]	viscosity [mPa·s]
298.15 K	765	0.719
303.15 K	760.67	0.655
313.15 K	751.94	0.573

CN1CCNCC1 [N-methylpiperazine]
[2]
Conditions	mass density [kg/m3]	viscosity [mPa·s]
298.15 K	899.28	1.856
303.15 K	894.9	1.544
313.15 K	886.07	1.25

CCCCCCC [heptane] + CN1CCNCC1
[1], x2 = 0
Conditions	mass density [kg/m3]	viscosity [mPa·s]
298.15 K	679.72	0.404
303.15 K	675.46	0.383
313.15 K	666.84	0.342

CC1CCCCC1 [methylcyclohexane]
[2]
Conditions	mass density [kg/m3]	viscosity [mPa·s]
298.15 K	765	0.719
303.15 K	760.67	0.655
313.15 K	751.94	0.573

CCCCCCC [heptane]
[2]
Conditions	mass density [kg/m3]	viscosity [mPa·s]
298.15 K	679.72	0.404
303.15 K	675.46	0.383
313.15 K	666.84	0.342
